Results: patent EP0880966A1, “THIAMINE DISULFIDES AND MEDICINES CONTAINING THE SAME AS THE ACTIVE INGREDIENT” (NISSUI PHARMACEUTICAL CO., LTD., priority 1996, dated 1998)
Where two headings read alike, the source gives them in different places.

Tested on: CEM/LAV-1
Conditions: for TCID50/ml / Inhibition rate (%): CEM/LAV-1 cells cultured 96 hours; for TCID50/ml: titer by 72-hour culture on MT-4 cells, control 4 x 10^5; for Inhibition rate (%): versus control without agent
Procedure: A test agent was added at predetermined concentrations to cells (2 x 10^5 cells/ml, 10 ml) persistently infected with HIV in a logarithmic growth phase to culture the cells for 96 hours. The number of viable cells and the number of killed cells were counted every 24 hours by a trypan blue dye exclusion test to determine the cytotoxic effect of the test agent on the cells. A viral infectious titer (TCID50/ml) in each of the culture solutions incubated for 96 hours was determined by 72-hour culture using, as an index, the giant cell formation of MT-4 cells. In a control group, the cells were cultured in a medium free of any agent. An anti-HIV activity (inhibition %) was determined in accordance with the following equation: Anti-HIV activity (inhibition %) =(TC)/(TC)x 100 [formula]

**Q.** Which inhibitory effect (CEM/LAV-1 cells, concentration of from 50 to 125 µm) does the source give for CCCCCCCCCCCCCC(=O)OCC/C(SS/C(CCOC(=O)CCCCCCCCCCCCC)=C(/C)N(C=O)Cc1cnc(C)nc1N)=C(\C)N(C=O)Cc1cnc(C)nc1N [compound (1), thiamine disulfide dimyristate] here?
**A.** The inhibitory effect was about 100%.

**Q.** What about the TCID50/ml (Invention compound 50 µM) of the same molecule?
**A.** Its TCID50/ml is 8 x 10^2 TCID50/ml.

**Q.** And the “Inhibition rate (%)” value (Invention compound 50 µM)?
**A.** Its value is 99.5%.

**Q.** What about the TCID50/ml (Invention compound 125 µM) of the same molecule?
**A.** Its TCID50/ml is 8 x 10^2 TCID50/ml.

**Q.** And the “Inhibition rate (%)” value (Invention compound 125 µM)?
**A.** Its value is 99.5%.
